# Source: ChEMBL document CHEMBL1153501, “3,4-Disubstituted benzofuran P1' MMP-13 inhibitors: optimization of selectivity and reduction of protein binding” (Bioorg Med Chem Lett, 2009)
# pIC50: −log10 of the molar value.
# Columns and labels:
# [1] = Selectivity ratio of IC50 for MMP2 to IC50 for MMP13
# [2] = biological target: Matrix metalloproteinase-9 (Homo sapiens, UniProt P14780); test: Inhibition of MMP9
# [3] = biological target: Collagenase 3 (Bos taurus) (UniProt O77656); test: Inhibition of IL1-stimulated MMP13-mediated bovine articular cartilage collagen degradation assessed as hydroxyproline content at 1 uM after 17 days
# [4] = biological target: Collagenase 3 (Bos taurus) (UniProt O77656); test: Inhibition of IL1-stimulated MMP13-mediated bovine articular cartilage collagen degradation assessed as hydroxyproline content at 0.1 uM after 17 days
# [5] = biological target: Collagenase 3 (Bos taurus) (UniProt O77656); test: Inhibition of IL1-stimulated MMP13-mediated bovine articular cartilage collagen degradation assessed as hydroxyproline content at 0.01 uM after 17 days
# albumin = albumin (Oryctolagus cuniculus, UniProt P49065); test: Protein binding in rabbit serum albumin by equilibrium dialysis assay; type: ADME; conditions: read-out: PB
# Chain of albumin (P49065 whole entry): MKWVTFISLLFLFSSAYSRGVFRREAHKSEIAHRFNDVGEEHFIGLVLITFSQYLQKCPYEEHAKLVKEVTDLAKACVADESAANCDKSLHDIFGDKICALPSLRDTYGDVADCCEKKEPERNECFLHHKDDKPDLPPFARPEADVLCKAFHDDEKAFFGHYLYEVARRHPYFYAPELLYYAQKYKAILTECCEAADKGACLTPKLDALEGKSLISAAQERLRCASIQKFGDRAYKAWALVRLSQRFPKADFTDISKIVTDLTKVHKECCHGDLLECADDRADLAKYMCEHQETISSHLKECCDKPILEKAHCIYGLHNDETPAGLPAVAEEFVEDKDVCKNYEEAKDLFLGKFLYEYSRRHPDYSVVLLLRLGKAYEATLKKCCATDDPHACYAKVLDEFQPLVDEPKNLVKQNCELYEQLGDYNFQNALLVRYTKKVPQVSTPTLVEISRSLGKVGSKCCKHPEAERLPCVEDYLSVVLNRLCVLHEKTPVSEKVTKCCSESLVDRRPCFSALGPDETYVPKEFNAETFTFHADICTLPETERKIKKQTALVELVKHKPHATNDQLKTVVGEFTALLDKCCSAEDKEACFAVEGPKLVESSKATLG
# Collagenase 3 = Collagenase 3 (Homo sapiens, UniProt P45452); test: Inhibition of MMP13
# [6] = biological target: 72 kDa type IV collagenase (Homo sapiens, UniProt P08253); test: Inhibition of MMP2
# Chain of 72 kDa type IV collagenase (P08253 whole entry): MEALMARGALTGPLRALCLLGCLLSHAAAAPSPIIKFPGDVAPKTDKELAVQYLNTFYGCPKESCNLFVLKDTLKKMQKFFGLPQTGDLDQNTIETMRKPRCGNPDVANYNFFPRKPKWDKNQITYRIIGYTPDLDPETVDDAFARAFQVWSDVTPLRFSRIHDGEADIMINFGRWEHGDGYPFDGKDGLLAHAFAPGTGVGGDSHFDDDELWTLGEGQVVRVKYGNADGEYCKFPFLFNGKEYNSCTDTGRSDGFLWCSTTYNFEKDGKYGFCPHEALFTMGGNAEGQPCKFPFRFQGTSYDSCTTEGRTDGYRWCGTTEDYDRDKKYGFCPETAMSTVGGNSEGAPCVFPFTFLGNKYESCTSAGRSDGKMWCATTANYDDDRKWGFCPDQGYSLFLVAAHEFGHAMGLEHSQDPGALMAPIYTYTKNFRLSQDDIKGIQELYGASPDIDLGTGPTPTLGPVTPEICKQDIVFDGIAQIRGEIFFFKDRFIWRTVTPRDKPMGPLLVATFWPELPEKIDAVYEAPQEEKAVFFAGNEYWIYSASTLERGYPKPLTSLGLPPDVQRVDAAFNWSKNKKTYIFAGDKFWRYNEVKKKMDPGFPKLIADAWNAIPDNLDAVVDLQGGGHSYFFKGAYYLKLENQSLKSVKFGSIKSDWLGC
# Interstitial collagenase = Interstitial collagenase (Homo sapiens, UniProt P03956); test: Inhibition of MMP1
# Chain of Interstitial collagenase (P03956 whole entry, looked up): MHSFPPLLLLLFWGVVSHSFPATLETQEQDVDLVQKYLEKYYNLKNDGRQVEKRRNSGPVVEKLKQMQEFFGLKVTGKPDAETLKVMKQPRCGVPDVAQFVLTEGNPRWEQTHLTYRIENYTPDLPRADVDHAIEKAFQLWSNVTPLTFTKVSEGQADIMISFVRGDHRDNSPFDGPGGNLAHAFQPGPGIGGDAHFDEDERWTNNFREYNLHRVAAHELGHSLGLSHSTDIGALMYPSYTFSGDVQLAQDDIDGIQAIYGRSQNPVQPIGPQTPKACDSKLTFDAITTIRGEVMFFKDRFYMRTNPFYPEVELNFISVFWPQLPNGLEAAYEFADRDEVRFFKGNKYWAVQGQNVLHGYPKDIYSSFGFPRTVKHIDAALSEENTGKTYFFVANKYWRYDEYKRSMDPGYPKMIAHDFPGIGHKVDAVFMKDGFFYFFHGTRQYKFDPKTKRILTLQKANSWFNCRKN
# [7] = biological target: Matrix metalloproteinase-14 (Homo sapiens, UniProt P50281); test: Inhibition of MMP14
# [8] = biological target: T1, A disintegrin and metalloproteinase with thrombospondin motifs 4 (Homo sapiens, UniProt O75173); test: Inhibition of aggrecanase-1
# T1 sequence (O75173 whole entry): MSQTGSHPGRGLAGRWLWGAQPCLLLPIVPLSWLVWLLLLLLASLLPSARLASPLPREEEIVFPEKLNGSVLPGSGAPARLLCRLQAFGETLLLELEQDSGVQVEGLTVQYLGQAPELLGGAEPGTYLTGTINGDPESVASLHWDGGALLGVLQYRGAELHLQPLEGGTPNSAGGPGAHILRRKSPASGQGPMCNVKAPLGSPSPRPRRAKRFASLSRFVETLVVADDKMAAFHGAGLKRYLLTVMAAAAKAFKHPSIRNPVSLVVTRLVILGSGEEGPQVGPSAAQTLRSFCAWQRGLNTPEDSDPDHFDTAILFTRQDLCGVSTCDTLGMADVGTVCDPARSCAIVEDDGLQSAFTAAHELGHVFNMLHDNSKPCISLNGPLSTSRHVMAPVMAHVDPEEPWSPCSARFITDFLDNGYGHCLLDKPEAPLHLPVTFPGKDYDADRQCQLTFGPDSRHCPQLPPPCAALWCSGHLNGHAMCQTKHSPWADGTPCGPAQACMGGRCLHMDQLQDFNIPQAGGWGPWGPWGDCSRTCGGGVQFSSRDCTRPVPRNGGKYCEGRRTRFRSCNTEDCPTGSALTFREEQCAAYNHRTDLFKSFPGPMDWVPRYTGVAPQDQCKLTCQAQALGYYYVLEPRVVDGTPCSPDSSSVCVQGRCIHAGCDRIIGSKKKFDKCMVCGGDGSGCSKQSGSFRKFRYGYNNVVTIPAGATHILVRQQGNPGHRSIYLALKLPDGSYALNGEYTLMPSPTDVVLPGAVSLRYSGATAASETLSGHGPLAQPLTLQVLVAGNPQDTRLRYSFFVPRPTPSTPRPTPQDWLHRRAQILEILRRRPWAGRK
# Chain of Matrix metalloproteinase-9 (P14780 whole entry): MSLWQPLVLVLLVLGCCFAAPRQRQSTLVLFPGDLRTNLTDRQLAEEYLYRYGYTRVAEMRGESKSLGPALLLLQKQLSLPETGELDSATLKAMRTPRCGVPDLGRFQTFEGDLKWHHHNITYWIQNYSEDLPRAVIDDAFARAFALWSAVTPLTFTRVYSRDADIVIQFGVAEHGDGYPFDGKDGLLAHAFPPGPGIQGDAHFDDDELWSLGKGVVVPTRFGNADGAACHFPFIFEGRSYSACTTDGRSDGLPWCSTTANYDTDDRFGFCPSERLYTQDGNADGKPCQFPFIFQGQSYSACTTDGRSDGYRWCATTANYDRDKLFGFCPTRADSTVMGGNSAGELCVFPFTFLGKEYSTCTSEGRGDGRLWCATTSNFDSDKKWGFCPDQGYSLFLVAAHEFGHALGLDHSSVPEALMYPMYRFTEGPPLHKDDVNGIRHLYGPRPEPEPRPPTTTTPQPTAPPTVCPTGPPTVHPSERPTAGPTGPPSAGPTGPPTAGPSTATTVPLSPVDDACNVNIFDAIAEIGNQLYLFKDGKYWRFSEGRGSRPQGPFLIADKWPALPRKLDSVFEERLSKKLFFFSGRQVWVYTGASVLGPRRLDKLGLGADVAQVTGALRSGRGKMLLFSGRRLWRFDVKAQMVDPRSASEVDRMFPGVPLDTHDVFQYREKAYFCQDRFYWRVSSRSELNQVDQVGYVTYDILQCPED
Structure (SMILES),Ratio IC50 [1],also measured
Cc1c(C(=O)Nc2ccc(-c3ccc(S(=O)(=O)N[C@H](C(=O)O)C(C)C)cc3)cc2)oc2cccc(CCCO)c12,621,
Cc1c(C(=O)Nc2ccc(-c3ccc(S(=O)(=O)N[C@H](C(=O)O)C(C)C)cc3)cc2)oc2cccc(C#N)c12,157,pIC50 [2]: < 5.00; inhibition [3]: 100%; inhibition [4]: 87%; inhibition [5]: 23%
Cc1c(C(=O)Nc2ccc(-c3ccc(S(=O)(=O)N[C@H](C(=O)O)C(C)C)cc3)cc2)oc2cccc(N)c12,75,
COc1cccc2oc(C(=O)Nc3ccc(-c4ccc(S(=O)(=O)N[C@H](C(=O)O)C(C)C)cc4)cc3)c(C)c12,110,
Cc1c(C(=O)Nc2ccc(-c3ccc(S(=O)(=O)N[C@H](C(=O)O)C(C)C)cc3)cc2)oc2cccc(N3CCOCC3)c12,51,
Cc1c(C(=O)Nc2ccc(-c3ccc(S(=O)(=O)N[C@H](C(=O)O)C(C)C)cc3)cc2)oc2cccc(Oc3ccccc3)c12,263,
Cc1c(C(=O)Nc2ccc(-c3ccc(S(=O)(=O)N[C@H](C(=O)O)C(C)C)cc3)cc2)oc2cccc(-c3ccoc3)c12,322,
Cc1c(C(=O)Nc2ccc(-c3ccc(S(=O)(=O)N[C@H](C(=O)O)C(C)C)cc3)cc2)oc2cccc(N(C)C)c12,786,
COC(=O)C(C)(C)Oc1cccc2oc(C(=O)Nc3ccc(-c4ccc(S(=O)(=O)N[C@H](C(=O)O)C(C)C)cc4)cc3)c(C)c12,248,
CNc1cccc2oc(C(=O)Nc3ccc(-c4ccc(S(=O)(=O)N[C@H](C(=O)O)C(C)C)cc4)cc3)c(C)c12,108,
C#Cc1cccc2oc(C(=O)Nc3ccc(-c4ccc(S(=O)(=O)N[C@H](C(=O)O)C(C)C)cc4)cc3)c(C)c12,98,
CC(=O)Nc1cccc2oc(C(=O)Nc3ccc(-c4ccc(S(=O)(=O)N[C@H](C(=O)O)C(C)C)cc4)cc3)c(C)c12,152,
CC#Cc1cccc2oc(C(=O)Nc3ccc(-c4ccc(S(=O)(=O)N[C@H](C(=O)O)C(C)C)cc4)cc3)c(C)c12,1580,
COc1c(Br)ccc2oc(C(=O)Nc3ccc(-c4ccc(S(=O)(=O)N[C@H](C(=O)O)C(C)C)cc4)cc3)c(C)c12,739,fraction unbound (albumin): < 0.01
Cc1c(C(=O)Nc2ccc(-c3ccc(S(=O)(=O)N[C@H](C(=O)O)C(C)C)cc3)cc2)oc2cccc(NS(C)(=O)=O)c12,165,pIC50 (Collagenase 3): 7.89; pIC50 [6]: 5.67; pIC50 [2]: < 5.00; pIC50 (Interstitial collagenase): 4.92; pIC50 [7]: 4.95; pIC50 [8]: 5.66; inhibition [3]: 96%; inhibition [4]: 69%; inhibition [5]: 51%
Cc1cccc2oc(C(=O)Nc3ccc(-c4ccc(S(=O)(=O)N[C@H](C(=O)O)C(C)C)cc4)cc3)c(C)c12,287,
Cc1c(C(=O)Nc2ccc(-c3ccc(S(=O)(=O)N[C@H](C(=O)O)C(C)C)cc3)cc2)oc2cccc(O)c12,63,
CCc1cccc2oc(C(=O)Nc3ccc(-c4ccc(S(=O)(=O)N[C@H](C(=O)O)C(C)C)cc4)cc3)c(C)c12,613,
COCCCc1cccc2oc(C(=O)Nc3ccc(-c4ccc(S(=O)(=O)N[C@H](C(=O)O)C(C)C)cc4)cc3)c(C)c12,364,
Cc1c(C(=O)Nc2ccc(-c3ccc(S(=O)(=O)N[C@H](C(=O)O)C(C)C)cc3)cc2)oc2cccc(-c3ccccc3)c12,243,
Cc1c(C(=O)Nc2ccc(-c3ccc(S(=O)(=O)N[C@H](C(=O)O)C(C)C)cc3)nc2)oc2cccc(NS(C)(=O)=O)c12,188,pIC50 (Collagenase 3): 7.40; pIC50 [6]: 5.12
CCOc1cccc2oc(C(=O)Nc3ccc(-c4ccc(S(=O)(=O)N[C@H](C(=O)O)C(C)C)cc4)cc3)c(C)c12,485,
